Literature values, collected in US9877959B2, “Pharmaceutical composition containing palonosetron” (SAMYANG BIOPHARMACEUTICALS CORPORATION, priority 2013, dated 2018).

Experiments:
[1] = in vivo
5-HT3 receptor = molecular target: T1, 5-HT3 receptor (Homo sapiens, UniProt P46098); settings: relative to first-generation 5-HT3 receptor antagonists
T1 sequence (P46098 24-478): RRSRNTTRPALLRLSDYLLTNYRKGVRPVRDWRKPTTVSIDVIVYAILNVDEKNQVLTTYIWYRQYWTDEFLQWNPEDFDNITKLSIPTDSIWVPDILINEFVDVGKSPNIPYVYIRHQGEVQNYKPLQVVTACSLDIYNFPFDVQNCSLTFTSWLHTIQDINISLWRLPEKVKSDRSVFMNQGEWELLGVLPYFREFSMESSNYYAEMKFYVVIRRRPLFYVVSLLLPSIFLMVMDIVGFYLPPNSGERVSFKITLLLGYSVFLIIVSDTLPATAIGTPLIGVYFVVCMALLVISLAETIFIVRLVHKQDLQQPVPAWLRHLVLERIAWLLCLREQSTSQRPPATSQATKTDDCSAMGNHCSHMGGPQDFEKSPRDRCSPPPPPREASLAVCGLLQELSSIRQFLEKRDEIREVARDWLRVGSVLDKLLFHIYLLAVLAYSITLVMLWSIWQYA

half-life [1]: ≥ 40 h
inhibitory effect on delayed vomiting, higher than that of other first-generation 5-HT3 receptor antagonists (5-HT3 receptor): 10 times
SMILES: O=C1c2cccc3c2C(CCC3)CN1C1CN2CCC1CC2 (stereo in doubt) [palonosetron, (3aS)-2-[(3S)-1-azabicyclo[2.2.2]oct-3-yl]-2,3,3a,4,5,6-hexahydro-1H-benz[de]isoquinolin-1-one]
